Data on three compounds can be found in paper PMC8058163 (Clinical pharmacology and therapeutics, 2020).

“And” between values parts separate entries of the source, which are not always exact repeats. Equal values may be shown once. Read-outs that look alike come from different tables or passages of the source. Bounds are passed on as bounds.

One data set concerns the target T1, MATE1 (Homo sapiens, UniProt Q96FL8).
T1 sequence (Q96FL8 1-570): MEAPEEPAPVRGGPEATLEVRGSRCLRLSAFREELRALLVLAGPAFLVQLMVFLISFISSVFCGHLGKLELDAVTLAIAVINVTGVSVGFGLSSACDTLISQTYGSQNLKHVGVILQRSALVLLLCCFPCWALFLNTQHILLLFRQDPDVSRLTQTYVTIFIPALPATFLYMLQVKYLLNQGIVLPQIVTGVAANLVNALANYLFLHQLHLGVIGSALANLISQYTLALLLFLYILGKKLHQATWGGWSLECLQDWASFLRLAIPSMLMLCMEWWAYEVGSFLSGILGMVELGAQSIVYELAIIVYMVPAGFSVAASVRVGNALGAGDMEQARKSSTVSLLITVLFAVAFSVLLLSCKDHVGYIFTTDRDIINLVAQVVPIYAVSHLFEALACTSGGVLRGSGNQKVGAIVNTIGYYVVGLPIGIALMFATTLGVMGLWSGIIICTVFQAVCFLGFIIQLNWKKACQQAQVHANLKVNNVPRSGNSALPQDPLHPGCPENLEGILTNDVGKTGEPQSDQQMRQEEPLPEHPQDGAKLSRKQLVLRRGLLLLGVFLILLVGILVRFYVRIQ
Briefly: Transporter inhibition assay, MATE1.

For another data set, the target named is MRP3 (Homo sapiens, UniProt O15438). Briefly: Transporter inhibition assay, MRP3.
The target of the next data set is MRP2 (Homo sapiens, UniProt Q92887). The data set can be described thus: Transporter inhibition assay, MRP2.
Another data set concerns the target T2, OATP1B1 (Homo sapiens, UniProt Q9Y6L6).
T2 sequence (Q9Y6L6 1-691): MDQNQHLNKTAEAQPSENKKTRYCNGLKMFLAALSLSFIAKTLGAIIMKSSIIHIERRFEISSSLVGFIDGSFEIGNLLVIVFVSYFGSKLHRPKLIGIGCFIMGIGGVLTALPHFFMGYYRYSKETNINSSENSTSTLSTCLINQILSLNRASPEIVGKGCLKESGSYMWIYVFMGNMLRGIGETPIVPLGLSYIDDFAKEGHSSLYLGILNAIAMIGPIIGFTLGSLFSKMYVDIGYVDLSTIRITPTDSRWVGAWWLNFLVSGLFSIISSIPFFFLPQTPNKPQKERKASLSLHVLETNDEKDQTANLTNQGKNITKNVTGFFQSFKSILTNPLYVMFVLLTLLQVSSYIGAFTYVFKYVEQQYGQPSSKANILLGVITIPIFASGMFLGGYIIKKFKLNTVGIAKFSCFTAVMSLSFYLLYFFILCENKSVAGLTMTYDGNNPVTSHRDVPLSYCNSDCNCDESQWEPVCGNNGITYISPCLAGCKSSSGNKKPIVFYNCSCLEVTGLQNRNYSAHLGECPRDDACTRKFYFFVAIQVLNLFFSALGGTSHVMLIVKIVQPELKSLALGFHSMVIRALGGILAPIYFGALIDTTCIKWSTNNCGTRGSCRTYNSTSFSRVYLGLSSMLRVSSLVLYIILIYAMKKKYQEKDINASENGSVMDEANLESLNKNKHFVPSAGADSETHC
The data set can be described thus: Transporter inhibition assay, OATP1B1. The following applies: for inhibition at 100 μM: cell line (HEK293 or MDCKII) stably expressing OATP1B1.

The next data set concerns the target T3, BCRP (Homo sapiens, UniProt Q9UNQ0).
T3 sequence (Q9UNQ0 1-655): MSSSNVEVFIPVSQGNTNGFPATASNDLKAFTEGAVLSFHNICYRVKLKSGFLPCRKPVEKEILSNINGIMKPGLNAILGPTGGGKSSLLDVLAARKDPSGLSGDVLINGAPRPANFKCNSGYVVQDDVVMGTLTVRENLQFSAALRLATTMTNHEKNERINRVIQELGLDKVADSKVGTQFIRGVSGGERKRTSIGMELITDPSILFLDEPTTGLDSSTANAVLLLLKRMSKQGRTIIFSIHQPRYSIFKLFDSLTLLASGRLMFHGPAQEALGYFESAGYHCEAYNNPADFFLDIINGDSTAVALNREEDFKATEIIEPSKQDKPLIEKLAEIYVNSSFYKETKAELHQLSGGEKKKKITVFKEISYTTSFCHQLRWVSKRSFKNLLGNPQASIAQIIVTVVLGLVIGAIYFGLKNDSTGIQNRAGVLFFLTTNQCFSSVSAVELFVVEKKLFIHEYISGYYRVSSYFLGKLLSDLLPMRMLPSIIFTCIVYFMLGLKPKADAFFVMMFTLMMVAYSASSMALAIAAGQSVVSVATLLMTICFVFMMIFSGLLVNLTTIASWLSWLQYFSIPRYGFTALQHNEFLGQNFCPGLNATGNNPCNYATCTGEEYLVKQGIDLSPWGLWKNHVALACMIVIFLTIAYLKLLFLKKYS
The data set can be described thus: Vesicular transport inhibition assay, BCRP.

The target of a further data set is BSEP (Homo sapiens, UniProt O95342). The data set can be described thus: Transporter inhibition assay, BSEP.
For another data set, the target named is T4, NTCP (Homo sapiens, UniProt Q14973).
T4 sequence (Q14973 1-349): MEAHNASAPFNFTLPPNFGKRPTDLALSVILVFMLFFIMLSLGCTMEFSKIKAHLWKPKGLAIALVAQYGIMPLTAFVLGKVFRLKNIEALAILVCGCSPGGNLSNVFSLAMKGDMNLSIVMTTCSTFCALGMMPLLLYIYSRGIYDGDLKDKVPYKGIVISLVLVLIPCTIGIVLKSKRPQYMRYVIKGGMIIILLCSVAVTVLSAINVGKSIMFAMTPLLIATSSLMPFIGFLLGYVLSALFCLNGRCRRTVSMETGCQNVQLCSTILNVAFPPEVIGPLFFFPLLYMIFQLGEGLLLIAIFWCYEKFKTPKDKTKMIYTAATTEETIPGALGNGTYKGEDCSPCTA
The data set can be described thus: Transporter inhibition assay, NTCP. The class given is cell-based. Conditions: alkaloids screened at 10 and 100 μM.

BSEP, sequence (O95342 whole entry): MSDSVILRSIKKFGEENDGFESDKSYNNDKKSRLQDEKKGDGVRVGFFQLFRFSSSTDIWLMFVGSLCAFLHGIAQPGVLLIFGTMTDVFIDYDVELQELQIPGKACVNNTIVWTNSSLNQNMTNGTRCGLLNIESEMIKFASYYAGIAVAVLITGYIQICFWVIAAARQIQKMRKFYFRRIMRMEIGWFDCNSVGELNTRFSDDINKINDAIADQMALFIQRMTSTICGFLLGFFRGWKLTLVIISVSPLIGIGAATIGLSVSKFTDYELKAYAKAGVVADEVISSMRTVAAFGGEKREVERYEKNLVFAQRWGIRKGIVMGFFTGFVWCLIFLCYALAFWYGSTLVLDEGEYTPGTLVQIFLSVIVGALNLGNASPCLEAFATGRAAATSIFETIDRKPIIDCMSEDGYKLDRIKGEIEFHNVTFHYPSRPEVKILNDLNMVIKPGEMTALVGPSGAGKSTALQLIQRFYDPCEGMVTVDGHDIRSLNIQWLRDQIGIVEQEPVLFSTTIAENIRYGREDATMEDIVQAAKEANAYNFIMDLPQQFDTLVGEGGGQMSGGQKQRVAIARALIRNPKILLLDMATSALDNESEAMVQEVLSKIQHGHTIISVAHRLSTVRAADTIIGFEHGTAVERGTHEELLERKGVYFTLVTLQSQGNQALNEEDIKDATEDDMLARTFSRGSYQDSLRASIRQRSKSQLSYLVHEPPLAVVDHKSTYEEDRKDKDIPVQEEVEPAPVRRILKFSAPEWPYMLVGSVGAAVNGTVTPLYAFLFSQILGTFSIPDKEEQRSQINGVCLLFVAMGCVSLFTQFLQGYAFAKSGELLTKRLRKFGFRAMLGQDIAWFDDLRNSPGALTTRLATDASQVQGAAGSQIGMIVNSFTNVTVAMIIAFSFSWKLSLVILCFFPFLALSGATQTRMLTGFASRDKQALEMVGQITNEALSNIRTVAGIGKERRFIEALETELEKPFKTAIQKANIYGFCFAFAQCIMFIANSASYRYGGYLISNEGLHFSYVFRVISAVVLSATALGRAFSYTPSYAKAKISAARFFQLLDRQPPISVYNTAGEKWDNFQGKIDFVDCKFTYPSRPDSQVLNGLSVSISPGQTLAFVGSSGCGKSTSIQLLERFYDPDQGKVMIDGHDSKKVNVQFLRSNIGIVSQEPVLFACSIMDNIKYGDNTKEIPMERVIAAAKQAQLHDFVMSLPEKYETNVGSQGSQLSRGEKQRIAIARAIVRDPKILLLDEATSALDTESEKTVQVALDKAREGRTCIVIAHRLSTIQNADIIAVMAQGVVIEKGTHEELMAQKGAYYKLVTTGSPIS
MRP2, sequence (Q92887 whole entry): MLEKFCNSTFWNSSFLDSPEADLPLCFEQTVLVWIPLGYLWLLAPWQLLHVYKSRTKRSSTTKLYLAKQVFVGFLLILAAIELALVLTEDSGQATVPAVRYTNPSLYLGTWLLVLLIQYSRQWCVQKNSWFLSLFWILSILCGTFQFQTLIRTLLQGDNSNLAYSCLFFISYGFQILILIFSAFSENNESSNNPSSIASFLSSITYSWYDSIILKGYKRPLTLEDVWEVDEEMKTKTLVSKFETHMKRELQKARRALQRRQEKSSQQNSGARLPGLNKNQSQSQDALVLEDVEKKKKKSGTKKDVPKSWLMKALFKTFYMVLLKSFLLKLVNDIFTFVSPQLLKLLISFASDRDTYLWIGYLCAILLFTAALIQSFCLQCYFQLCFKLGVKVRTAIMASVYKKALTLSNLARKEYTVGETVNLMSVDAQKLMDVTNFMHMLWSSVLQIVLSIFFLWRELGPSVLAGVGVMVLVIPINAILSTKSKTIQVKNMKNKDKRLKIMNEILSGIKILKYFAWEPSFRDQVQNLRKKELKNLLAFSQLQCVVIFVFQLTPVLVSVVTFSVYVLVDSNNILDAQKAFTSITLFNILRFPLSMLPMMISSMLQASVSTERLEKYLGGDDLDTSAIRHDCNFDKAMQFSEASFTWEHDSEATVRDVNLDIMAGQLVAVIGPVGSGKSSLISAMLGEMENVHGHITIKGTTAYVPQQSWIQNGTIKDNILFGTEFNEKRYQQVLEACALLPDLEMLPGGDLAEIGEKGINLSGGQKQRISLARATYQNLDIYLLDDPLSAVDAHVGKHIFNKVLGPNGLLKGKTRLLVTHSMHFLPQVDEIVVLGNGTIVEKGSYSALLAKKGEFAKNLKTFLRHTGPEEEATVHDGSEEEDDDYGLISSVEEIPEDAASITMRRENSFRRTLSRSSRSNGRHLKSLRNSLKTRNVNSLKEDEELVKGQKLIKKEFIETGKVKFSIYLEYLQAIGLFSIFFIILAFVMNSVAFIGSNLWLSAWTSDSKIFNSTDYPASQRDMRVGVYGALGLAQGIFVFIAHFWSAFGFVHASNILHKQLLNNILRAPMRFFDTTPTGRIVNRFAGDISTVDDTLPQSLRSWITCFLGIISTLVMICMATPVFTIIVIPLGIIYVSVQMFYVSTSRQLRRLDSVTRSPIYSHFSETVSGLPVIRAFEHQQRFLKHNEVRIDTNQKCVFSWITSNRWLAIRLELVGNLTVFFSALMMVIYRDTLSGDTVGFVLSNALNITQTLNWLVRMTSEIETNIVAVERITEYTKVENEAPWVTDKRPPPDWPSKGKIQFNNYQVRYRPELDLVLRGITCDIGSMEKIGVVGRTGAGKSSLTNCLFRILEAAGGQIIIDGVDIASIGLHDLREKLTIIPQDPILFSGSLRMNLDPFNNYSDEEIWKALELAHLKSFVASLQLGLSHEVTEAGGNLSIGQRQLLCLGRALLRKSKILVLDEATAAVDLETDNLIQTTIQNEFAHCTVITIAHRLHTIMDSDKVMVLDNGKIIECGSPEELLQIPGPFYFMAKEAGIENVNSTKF
MRP3, sequence (O15438 whole entry): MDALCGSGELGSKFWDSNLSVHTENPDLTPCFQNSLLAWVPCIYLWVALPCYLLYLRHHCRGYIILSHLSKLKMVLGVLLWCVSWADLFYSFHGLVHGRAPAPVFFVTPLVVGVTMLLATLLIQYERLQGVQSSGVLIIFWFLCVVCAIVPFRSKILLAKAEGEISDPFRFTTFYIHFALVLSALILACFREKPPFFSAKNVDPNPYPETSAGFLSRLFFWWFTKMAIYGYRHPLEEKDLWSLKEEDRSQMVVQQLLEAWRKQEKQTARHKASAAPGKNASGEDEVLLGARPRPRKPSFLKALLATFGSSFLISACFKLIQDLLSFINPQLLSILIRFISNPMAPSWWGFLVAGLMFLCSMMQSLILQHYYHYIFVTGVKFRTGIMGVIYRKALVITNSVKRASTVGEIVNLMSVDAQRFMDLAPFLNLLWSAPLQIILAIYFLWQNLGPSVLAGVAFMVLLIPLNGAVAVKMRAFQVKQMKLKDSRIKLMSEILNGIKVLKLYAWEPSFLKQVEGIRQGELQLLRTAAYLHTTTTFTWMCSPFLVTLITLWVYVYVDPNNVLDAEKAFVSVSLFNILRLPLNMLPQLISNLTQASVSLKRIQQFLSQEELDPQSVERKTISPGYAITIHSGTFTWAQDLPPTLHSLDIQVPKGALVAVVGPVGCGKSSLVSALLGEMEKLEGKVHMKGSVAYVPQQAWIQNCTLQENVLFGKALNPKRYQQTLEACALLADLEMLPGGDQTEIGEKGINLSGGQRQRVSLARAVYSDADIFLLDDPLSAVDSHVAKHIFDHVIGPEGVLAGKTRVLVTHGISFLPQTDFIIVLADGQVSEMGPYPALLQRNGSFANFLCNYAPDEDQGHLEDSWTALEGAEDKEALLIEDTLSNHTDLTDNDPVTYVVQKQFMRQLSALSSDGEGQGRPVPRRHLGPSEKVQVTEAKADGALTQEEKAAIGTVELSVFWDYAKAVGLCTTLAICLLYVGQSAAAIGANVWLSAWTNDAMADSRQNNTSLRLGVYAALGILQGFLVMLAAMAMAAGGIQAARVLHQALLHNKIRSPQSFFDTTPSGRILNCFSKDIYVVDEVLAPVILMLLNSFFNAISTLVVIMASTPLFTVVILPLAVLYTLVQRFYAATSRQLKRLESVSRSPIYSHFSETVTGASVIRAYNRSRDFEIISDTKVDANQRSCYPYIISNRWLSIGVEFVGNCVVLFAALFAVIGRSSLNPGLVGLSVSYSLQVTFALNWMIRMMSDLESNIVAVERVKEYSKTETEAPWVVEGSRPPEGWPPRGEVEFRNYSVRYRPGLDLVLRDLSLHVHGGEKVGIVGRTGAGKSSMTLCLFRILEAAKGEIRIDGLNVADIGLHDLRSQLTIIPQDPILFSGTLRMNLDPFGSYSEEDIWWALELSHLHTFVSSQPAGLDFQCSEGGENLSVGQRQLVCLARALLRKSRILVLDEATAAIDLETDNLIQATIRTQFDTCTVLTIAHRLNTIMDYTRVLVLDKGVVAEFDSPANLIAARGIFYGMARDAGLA

As to `COc1ccc2c(c1OC)C(=O)O[C@@H]2[C@H]1c2cc3c(cc2CCN1C)OCO3` [(−)-β-Hydrastine, (1R,9S)-(−)-β-Hydrastine], the IC50 (usually the midpoint of a concentration-inhibition curve) against MATE1 (MATE1, isolated alkaloids, mean [95% CI], three technical replicates) came to 110 µM; against OATP1B1 (OATP1B1, isolated alkaloids, mean [95% CI], three technical replicates), 120 µM; against BCRP (BCRP, isolated alkaloids, mean [95% CI], three technical replicates), 86.2 µM. For the same compound, the inhibition (commonly the drop in the measured response relative to a control, in per cent) at the highest concentration tested is “-- (inhibition not observed)” against MRP3 (MRP3, alkaloids screened at 10 and 100 μM); “-- (inhibition not observed)” at MRP2 (MRP2, alkaloids screened at 10 and 100 μM); “-- (inhibition not observed)” on BSEP (BSEP, alkaloids screened at 10 and 100 μM); “-- (inhibition not observed)” at NTCP.
Regarding `COc1ccc2cc3[n+](cc2c1OC)CCc1cc2c(cc1-3)OCO2` [Berberine, berberine chloride], the IC50 at MATE1 (IC50, MATE1, isolated alkaloids, mean [95% CI], three technical replicates) was < 1 µM and 0.73 µM; at BCRP, 180 µM. Moreover, the inhibition at 100 μM against MRP3, at MRP2, against OATP1B1 and against BSEP was under 20% throughout. For the same compound, the “inhibition at the highest concentration tested” value at NTCP is “-- (inhibition not observed)”.
Compound `CN1CCc2cc3c(cc2C1O)OCO3` (stereo not drawn) [Hydrastinine, hydrastinine chloride monohydrate] returned an IC50 on MATE1 of 82 µM. The inhibition at 100 μM at MRP3, on MRP2, at OATP1B1, against BCRP and against BSEP was under 20% each time. For the same compound, the “inhibition at the highest concentration tested” value against NTCP is recorded as “-- (inhibition not observed)”.
